Results published in publication PMC7762659, “Phenolic Compounds from Polygonum chinense Induce Growth Inhibition and Apoptosis of Cervical Cancer SiHa Cells” (BioMed Research International, 2020).
Like-named read-outs stand apart in the source and are kept apart here.

Experiments:
Format in all cases: cell-based, human
[1] = test system: SiHa cells; assay: CCK8 antiproliferative activity assay on SiHa cells; settings: 48 h, read-out: IC50, antiproliferation activity on SiHa cells (PC phenolics)
Protocol: (§1) The SiHa cell line was obtained from American Type Culture Collection (ATCC, Manassas, Virginia, VA, USA); HcerEpic cell was obtained from ScienCell (San Diego, Los Angeles, LA, USA). The cells were maintained in medium RP1640 containing 10% FBS, high glucose DMEM cultured with 100 U/ml of penicillin, and 100 U/ml of streptomycin, in a humidified CO2 (5%) incubator at 37°C. All reagents for cell cultures were purchased from Invitrogen (Carlsbad, California, CA, USA).
(§2) SiHa and HcerEpic cells were cultured in 96-well plates at approximately 7.5 × 10^3 cells per well and incubated for 12 h. Then, cells were treated with different concentrations of PC extracts (5, 10, 25, 50, and 100 μg/mL) or seven PC PHE (10, 20, 40, 60, and 80 μM). After incubation of 48 h, then 10 μL CCK8 reagent added per hole, placed in the incubator 2 h, incubation, enzyme standard instrument determination at 450 nm absorbance (OD value).
(§3) Cell vitality∗(%) = [A (dosing) − A (blank)]/[A dosing (O) − A (blank)] × 100%A (dosing): OD values of Wells with cell, CCK8 solution, and drug solution.
(§4) A (blank): OD values of Wells with medium, CCK8 solution, and no cells.
(§5) A (0 dosing): OD values of Wells with cell and CCK8 solution but no drug solution.

[2] = test system: HcerEpic cells; assay: CCK8 antiproliferative activity assay on HcerEpic cells; settings: 48 h, read-out: IC50, antiproliferation activity on HcerEpic cells (PC phenolics)
Protocol: as §1, §2, §3, §4, §5

[3] = test system: P53, Bax, Bcl-2, caspase 3, caspase 9 in SiHa cells; assay: Western blot of apoptosis-related proteins in SiHa cells; settings: SiHa cells, 25, 50, 75 μM, 48 h, compared with control
Protocol: We followed the Western blot methods of Tu et al. 2020 [24]. […] The culture was terminated after 48 h. Then, cells were collected and proteins were extracted with RIPA lysis buffer containing a protease inhibitor cocktail. The total protein concentrations were measured using the Bradford method, and the normalized protein samples were added to 4 sample buffer, then boiled and denatured. Equal amounts of proteins were separated by SDS-PAGE and then transferred to nitrocellulose membranes. The membranes were blocked and then probed with indicated primary antibodies, respectively, with anti-P53 (1 : 1000), anti-Bax (1 : 1000), anti-Bcl-2 (1 : 1000), anti-caspase 3 (1 : 2500), anti-caspase 9 (1 : 2500), anti-cleaved-caspase 3 (1 : 1000), and anti-cleaved-caspase 9 (1 : 1000), at 4°C overnight. Antibodies were purchased from Abcam (Santa Cruz, California, CA, USA); others were from Cell Signaling Technology (Cell Signaling, Danvers, Massachusetts, MA, USA). All antibodies were diluted with 5% BSA in TBST buffer. The blots were rinsed and then incubated with secondary antibodies (anti-mouse antibody or anti-rabbit antibody, 1 : 5000, Cell Signaling Technology). Reactive bands were visualized using ECL (Thermo Fisher Scientific; Waltham, MA, USA) and then calibrated by ChemiDoc Imaging System (Bio-Rad; Hercules, California, CA, USA).

Compound	IC50 [1]	IC50 [2]	IC50 ([1]; Homo sapiens, SiHa)	IC50 ([2]; Homo sapiens)	expression level of Bcl-2 protein [3]	expression level of Caspase3 protein [3]	expression level of Csapase9 protein [3]	expression level of P53 protein [3]
O=C1CC(C(=O)O)c2c1oc(=O)c1cc(O)c(O)c(O)c21 (stereo not shown) [Brevifolin carboxylic acid]	> 100 µM	> 100 µM						
O=C(O)C[C@@H]1C(=O)O[C@H]2[C@@H]3OC(=O)c4cc(O)c(O)c(O)c4-c4c(cc(O)c(O)c4O)C(=O)OC[C@H]2O[C@@H](OC(=O)c2cc(O)c(O)c(O)c2)[C@@H]3OC(=O)c2cc(O)c(O)c3c2[C@H]1[C@H](O)C(=O)O3 [Chebulagic acid]			> 100 µM	> 100 µM				
O=C(/C=C/c1ccc(O)c(O)c1)O[C@@H]1C[C@](O)(C(=O)O)C[C@@H](O)[C@H]1O [Chlorogenic acid]			> 100 µM	> 100 µM				
O=C(O[C@@H]1O[C@@H]2COC(=O)c3cc(O)c(O)c(O)c3-c3c(cc(O)c(O)c3O)C(=O)O[C@H]([C@H]1O)[C@@H]2O)c1cc(O)c(O)c(O)c1 [Corilagin]			28.7 µM	> 100 µM	downregulated	significantly upregulated	significantly upregulated	significantly upregulated
O=c1oc2c(O)c(O)cc3c(=O)oc4c(O)c(O)cc1c4c23 [Ellagic acid]			21.5 µM	> 100 µM	downregulated	significantly upregulated	significantly upregulated	significantly upregulated
O=C(O)c1cc(O)c(O)c(O)c1 [Gallic acid]			> 100 µM	> 100 µM				
Citrate acid	> 100 µM	> 100 µM						
